IC50 data for 78 compounds are collected here from patent publication US11247985B2, “Phenyl indole allosteric inhibitors of P97 ATPase” (University of Pittsburgh—Of the Commonwealth System of …, priority 2015, dated 2022).

Each structure is given as a SMILES string.

Sequence of p97 ATPase WT (P55072 whole entry): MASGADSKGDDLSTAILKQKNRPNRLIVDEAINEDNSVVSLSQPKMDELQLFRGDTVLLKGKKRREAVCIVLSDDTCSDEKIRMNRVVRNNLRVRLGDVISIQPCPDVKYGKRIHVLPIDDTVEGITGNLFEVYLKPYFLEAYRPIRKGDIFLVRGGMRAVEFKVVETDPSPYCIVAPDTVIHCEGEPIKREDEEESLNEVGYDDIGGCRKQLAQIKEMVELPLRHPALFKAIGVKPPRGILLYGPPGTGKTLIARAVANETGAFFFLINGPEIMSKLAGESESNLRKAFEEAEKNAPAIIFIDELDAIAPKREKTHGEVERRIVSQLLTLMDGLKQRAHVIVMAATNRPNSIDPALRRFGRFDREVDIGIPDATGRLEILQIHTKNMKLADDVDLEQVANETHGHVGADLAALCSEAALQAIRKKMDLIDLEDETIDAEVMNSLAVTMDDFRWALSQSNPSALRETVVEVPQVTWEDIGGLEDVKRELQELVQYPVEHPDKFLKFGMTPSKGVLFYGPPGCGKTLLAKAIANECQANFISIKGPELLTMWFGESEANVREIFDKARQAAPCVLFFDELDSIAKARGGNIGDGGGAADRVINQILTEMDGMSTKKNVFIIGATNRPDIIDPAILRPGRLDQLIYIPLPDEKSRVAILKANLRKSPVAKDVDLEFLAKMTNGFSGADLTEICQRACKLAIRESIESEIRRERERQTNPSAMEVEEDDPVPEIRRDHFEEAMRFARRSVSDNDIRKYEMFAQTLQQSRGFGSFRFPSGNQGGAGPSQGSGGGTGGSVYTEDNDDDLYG

The target in the assay is p97 ATPase WT (Homo sapiens (Human), UniProt P55072). The assay is described as follows: p97 ADP-Glo assay. It counts as biochemical. Particulars: Table 3; read-out: ADPGlo IC50. The source says:
ADP-Glo™ (Promega Corp.) is a bioluminescent, homogeneous assay that measures ADP formed from a biochemical reactions. Because of its high sensitivity, the assay is suitable for monitoring enzyme activities at very early substrate conversions requiring very low amount of enzymes.
The ADP-Glo assay can be conducted as described in Chou, T.-F.; Bulfer, S. L.; Weihl, C.
In general terms: ADP-Glo turns the ADP formed in a reaction into a luminescent signal.
Consider `COCCN1CCN(CCNC2CCN(c3cccc(-c4cc5ccccc5[nH]4)c3)CC2)CC1`, for which the IC50 is 300 nM. The result for `CC(C)N1CCN(CCNC2CCN(c3cccc(-c4cc5ccc(F)cc5[nH]4)c3)CC2)CC1` reads 540 nM; that for `CN1CCN(CCCNC2CCN(c3cccc(-c4cc5ccccc5[nH]4)c3)CC2)CC1`, 210 nM; that for `CNC(=O)CCNC1CCN(c2cccc(-c3cc4cc(F)ccc4[nH]3)c2)CC1`, 630 nM. The result for `c1cc(-c2cc3ccccc3[nH]2)cc(N2CCC(NCCN3CCN(CC4CC4)CC3)CC2)c1` reads 170 nM; that for `CCC(C)N1CCN(CCCNC2CCN(c3cccc(-c4cc5ccccc5[nH]4)c3)CC2)CC1` (stereo not drawn), 640 nM. Under `C[C@@H]1CN(CCNC2CCN(c3cccc(-c4cc5ccccc5[nH]4)c3)CC2)C[C@H](C)N1C` stands 140 nM. For `CCOC(=O)Nc1cccc(N2CCC(NCCN3CCN(C(C)C)CC3)CC2)c1`, the IC50 came to 1700 nM. The result for `CN1CCN(C2(CNC3CCN(c4cccc(-c5cc6cc(F)ccc6[nH]5)c4)CC3)CCC2)CC1` reads 15 nM. The result for `NC1CCN(c2cccc(-c3cc4ccccc4[nH]3)c2)CC1` reads 1800 nM. The result for `CC(C)N1CCN(C2(CNC3CCN(c4cccc(-c5cc6cc(C#N)ccc6[nH]5)c4)CC3)CCC2)CC1` reads 15 nM; that for `CC(C)N1CCN(CCNC2CCN(c3cccc(-c4cc5ccccc5[nH]4)c3)CC2)C(=O)C1`, 1900 nM; that for `Cc1ccc(N2CCC(NCCN3CCN(C(C)C)CC3)CC2)cc1-c1cc2cc(F)ccc2[nH]1`, 25 nM.

On to `Cn1ncnc1CCNC1CCN(c2cccc(-c3cc4cc(F)c(F)cc4[nH]3)c2)CC1`, for which the IC50 stood at 2200 nM. Consider `CC(C)N1CCN(CCNC2CCN(c3cccc(-c4cc5cc(C#N)ccc5[nH]4)c3)CC2)CC1`, for which the concentration for half-maximal inhibition (IC50) came to 26 nM. Under `CC(C)(C)OC(=O)N1CCN(CCNC2CCN(c3cccc(-c4cc5ccccc5[nH]4)c3)CC2)CC1` stands 2400 nM. `CN1CCN(C2(CNC3CCN(c4cccc(-c5cc6cc(C#N)ccc6[nH]5)c4)CC3)CCC2)CC1`: the IC50 stood at 26 nM. The result for `FC1(F)CCN(CCNC2CCN(c3cccc(-c4cc5ccccc5[nH]4)c3)CC2)CC1` reads 2400 nM; that for `CC(C)N1CCN(CCNC2CCN(c3cccc(-c4cc5cc(F)ccc5[nH]4)c3)CC2)CC1`, 27 nM; that for `CC(C)N1CCN(CCNC2CCN(c3cccc(-c4cc5cccc(F)c5[nH]4)c3)CC2)CC1`, 3300 nM.

For `CC(C)N1CCN(CCNC2CCN(c3cccc(-c4cc5cc(OC(F)(F)F)ccc5[nH]4)c3)CC2)CC1`, the IC50 stood at 3700 nM. The result for `CC(C)N1CCN(C2(CNC3CCN(c4cccc(-c5cc6cc(F)ccc6[nH]5)c4)CC3)COC2)CC1` reads 41 nM; that for `CC(C)N1CCN(CCNC2CCN(c3cccc(-c4cc5cnccc5[nH]4)c3)CC2)CC1`, 3800 nM. Consider `CC(C)N1CCN(C2(CNC(=O)C3CCN(c4cccc(-c5cc6cc(F)ccc6[nH]5)c4)CC3)CCC2)CC1`, for which the IC50 stood at 3800 nM. Turning to `CC(C)N1CCC(NC2CCN(c3cccc(-c4cc5cc(F)ccc5[nH]4)c3)CC2)CC1`, the IC50 was 49 nM.

For `CC(C)N1CCC(NC(=O)C2CCN(c3cccc(-c4cc5cc(F)ccc5[nH]4)c3)CC2)CC1`, the IC50 amounted to 3900 nM. Under `Cc1ccc(N2CCC(NC3CCN(C)CC3)CC2)cc1-c1cc2cc(F)ccc2[nH]1` stands 82 nM; under `Cc1ccc(N2CCC(NCCN3CCN(C(C)C)CC3)CC2)cc1-c1cc2cc(C#N)ccc2[nH]1`, 86 nM.

For `CC(C)N1CCN(C2CCN(c3cccc(-c4cc5cc(F)ccc5[nH]4)c3)CC2)CC1`, the half-maximal inhibitory concentration (IC50) was 4300 nM.

Regarding `CC(C)N1CCN(CCNC2CCN(c3cccc(-c4cc5cc(C(N)=O)ccc5[nH]4)c3)CC2)CC1`, the IC50 came to 87 nM. Under `Cc1ccc(N2CCC(NCCc3ncnn3C)CC2)cc1-c1cc2ccccc2[nH]1` stands 4500 nM; under `CC(C)N1CCC(NC2CCN(c3cccc(-c4cc5cc(Cl)ccc5[nH]4)c3)CC2)CC1`, 92 nM. `CC(C)N1CCN(CCNC2CCN(c3cccc(-c4cc5ccc([N+](=O)[O-])cc5[nH]4)c3)CC2)CC1`: the IC50 came out at 4600 nM. Under `CC(C)N1CCN(CCNC2CCN(c3cccc(-c4cc5cc(O)ccc5[nH]4)c3)CC2)CC1` stands 100 nM; under `Cc1ccc(N2CCC(NCC3(N4CCN(C(C)C)CC4)CCC3)CC2)cc1-c1cc2cc(C#N)ccc2[nH]1`, 100 nM. For the compound `CC(C)N1CCN(CCNC2CCN(c3cccc(-c4ccc5ccccc5c4)c3)CC2)CC1`, the IC50 stood at 5100 nM. Turning to `CN1CCN(C2(CNC3CCN(c4cccc(-c5cc6cc(Cl)ccc6[nH]5)c4)CC3)CCC2)CC1`, the IC50 is 110 nM. The result for `CC(C)N1CCN(CCNC2CCN(c3cccc(-c4cc5ccc(N)cc5[nH]4)c3)CC2)CC1` reads 5200 nM; that for `CC(C)N1CCN(C2(CNC3CCN(c4cccc(-c5cc6cc(C#N)ccc6[nH]5)c4)CC3)COC2)CC1`, 110 nM; that for `CC(C)N1CCN(CCNC2CCN(c3cccc(-c4cc5cc(F)cnc5[nH]4)c3)CC2)CC1`, 5300 nM.

As for `Cc1ccc(N2CCC(NC3CCN(C(C)C)CC3)CC2)cc1-c1cc2cc(C#N)ccc2[nH]1`, the IC50 worked out at 110 nM. Under `[N-]=[N+]=Nc1ccc(NCCNC2CCN(c3cccc(-c4cc5ccccc5[nH]4)c3)CC2)cc1` stands 5600 nM; under `CCC(C)N1CCN(CCNC2CCN(c3cccc(-c4cc5ccccc5[nH]4)c3)CC2)CC1` (stereo not drawn), 110 nM.

`CC(C)N1CCN(CC=C2CCN(c3cccc(-c4cc5ccccc5[nH]4)c3)CC2)CC1`: the IC50 turned out to be 5800 nM. `CC(C)N1CCN(CCNC2CCN(c3cccc(-c4cc5cc(Cl)ccc5[nH]4)c3)CC2)CC1`: the IC50 is 120 nM.

For `CC(C)N1CCN(CCC2CCN(c3cccc(-c4cc5ccccc5[nH]4)c3)CC2)CC1`, the IC50 turned out to be 6000 nM. For the compound `CC(C)N1CCN(C(=O)CCNC2CCN(c3cccc(-c4cc5cc(F)ccc5[nH]4)c3)CC2)CC1`, the IC50 was 120 nM. Under `CC(C)N1CCN(CCNC2CCN(c3cccc(-c4cc5cc(C(F)(F)F)ccc5[nH]4)c3)CC2)CC1` stands 6000 nM. The result for `CC(C)N1CCC(NC2CCN(c3cccc(-c4cc5ccccc5[nH]4)c3)CC2)CC1` reads 130 nM; that for `CC(C)N1CCN(CCNC2CCN(c3cccc(-c4cc5ccc(C#N)cc5[nH]4)c3)CC2)CC1`, 6100 nM; that for `CN1CCC(NC2CCN(c3cccc(-c4cc5cc(C#N)ccc5[nH]4)c3)CC2)CC1`, 130 nM.

On to `CC(C)[C@H]1CC[C@H](NC2CCN(c3cccc(-c4cc5cc(C#N)ccc5[nH]4)c3)CC2)CC1`, for which the IC50 amounted to 6200 nM. Under `CC(C)N1CCN(C2(CNC3CCN(c4cccc(-c5cc6cc(F)ccc6[nH]5)c4)CC3)CCC2)CC1` stands 130 nM; under `CC(C)N1CCN(CCNC2CCN(c3cccc(-c4nc5ccccc5n4-c4ccc(C(c5ccccc5)c5ccccc5)cc4)c3)CC2)CC1`, 7100 nM. Regarding `CC(C)(C)N1CCN(CCNC2CCN(c3cccc(-c4cc5ccccc5[nH]4)c3)CC2)CC1`, the IC50 was found to be 130 nM.

Consider `CC(C)N1CCN(CCNC(=O)CC2CCN(c3cccc(-c4cc5ccccc5[nH]4)c3)CC2)CC1`, for which the IC50 worked out at 7340 nM.

For `CN1CCN(C2(CNC3CCN(c4cccc(-c5cc6ccccc6[nH]5)c4)CC3)CCC2)CC1`, the IC50 came to 140 nM. Under `CC(C)N1CCC(NC2CCN(c3cccc(-c4cc5cc(S(=O)(=O)NCc6ccccc6)ccc5[nH]4)c3)CC2)CC1` stands 7500 nM; under `CC(C)N1CCN(C(=O)CCNC2CCN(c3cccc(-c4cc5ccccc5[nH]4)c3)CC2)CC1`, 140 nM. For `CC(C)N1CCN(CCNC(=O)C=C2CCN(c3cccc(-c4cc5ccccc5[nH]4)c3)CC2)CC1`, the IC50 was 7580 nM. The result for `Cc1ccc(N2CCC(NCCN3CCN(C(C)C)CC3)CC2)cc1-c1cc2ccccc2[nH]1` reads 140 nM.

In the case of `CC(C)N1CCN(CC(=O)NC2CCN(c3cccc(-c4cc5ccccc5[nH]4)c3)CC2)CC1`, the IC50 is 7600 nM. On to `CC(C)N1CCCN(CCNC2CCN(c3cccc(-c4cc5ccccc5[nH]4)c3)CC2)CC1`, for which the IC50 stood at 150 nM. The result for `CC(C)N1CCN(CCNC2CCN(c3cncc(-c4cc5ccccc5[nH]4)c3)CC2)CC1` reads 8000 nM.

In the case of `CN1CCN(C(=O)CCNC2CCN(c3cccc(-c4cc5cc(F)ccc5[nH]4)c3)CC2)CC1`, the IC50 worked out at 150 nM. Under `CC(C)N1CCC(NC2CCN(c3cccc(-c4cc5cc(S(N)(=O)=O)ccc5[nH]4)c3)CC2)CC1` stands 8600 nM; under `COC(=O)c1ccc2[nH]c(-c3cccc(N4CCC(NCCN5CCN(C(C)C)CC5)CC4)c3)cc2c1`, 150 nM; under `CC(C)N1CCN(CCNC2CCN(c3cccc(-c4[nH]c5ccc(F)cc5c4-c4c(-c5cccc(N6CCC(NCCN7CCN(C(C)C)CC7)CC6)c5)[nH]c5ccc(F)cc45)c3)CC2)CC1`, 9300 nM.

Regarding `CC(C)N1CCN(C(=O)CCNC2CCN(c3cccc(-c4cc5cc(C#N)ccc5[nH]4)c3)CC2)CC1`, the IC50 was 150 nM.

`O=C(Nc1ccccn1)C1CCN(c2cccc(-c3cc4cc(F)ccc4[nH]3)c2)CC1`: the IC50 was 9700 nM. The result for `N#Cc1ccc2[nH]c(-c3cccc(N4CCC(NCc5cccc(N=[N+]=[N-])c5)CC4)c3)cc2c1` reads 160 nM.

As to `CC(C)N1CCN(CCNC2CCN(c3cccc(-c4cc5c([nH]4)CCNC5)c3)CC2)CC1`, the IC50 came out at 11000 nM.

For the compound `Fc1ccc2[nH]c(-c3cccc(N4CCC(NCCc5c[nH]c6ccccc56)CC4)c3)cc2c1`, the IC50 came to 11000 nM. For `CN1CCC(NC2CCN(c3cccc(-c4cc5cc(F)ccc5[nH]4)c3)CC2)CC1`, the IC50 is 180 nM. Under `Cc1c(-c2cccc(N3CCC(NCCN4CCN(C(C)C)CC4)CC3)c2)[nH]c2ccccc12` stands 12000 nM; under `CC(C)N1CCN(CCNC2CCN(c3cccc(-c4cc5cc(N=[N+]=[N-])ccc5[nH]4)c3)CC2)CC1`, 200 nM; under `CC(C)N1CCN(CCOC2CCN(c3cccc(-c4cc5ccccc5[nH]4)c3)CC2)CC1`, 12000 nM. The result for `Cc1ccc2[nH]c(-c3cccc(N4CCC(NCCN5CCN(C(C)C)CC5)CC4)c3)cc2c1` reads 200 nM.

By IC50 is commonly meant the concentration needed to halve the response being measured.
